Data: US20250368633A1, “AZEPINE FUSED RING COMPOUND AS RIPK1 INHIBITOR AND USE THEREOF” (ARTIVILA BIOPHARMA, priority 2022, published 2025)

Tests used:
U937 cells = experiment: EC50 of necroptosis inhibition in U937 cells (TSZ-induced, CellTiter-Glo); type: cell-based; conditions: Homo sapiens, U-937; TSZ (hTNF-α, SM-164, Z-VAD-FMK) 20 hours; 10 concentration points; read-out: EC50 intervals of necroptosis inhibition in U937 cells
Summary of the method: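 Luminescent ATP readout (CellTiter-Glo) after 20 h gave viability of TSZ-challenged U937 cells; compounds were added 15 min ahead of TNF-α/SM-164/Z-VAD-FMK. EC50 derived by variable-slope nonlinear regression of inhibition relative to no-TSZ and TSZ-alone controls.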

RIPK1 kinase = target: T1, RIPK1 kinase (Homo sapiens, UniProt Q13546); experiment: In vitro RIPK1 kinase activity IC50 assay (ADP-Glo); type: biochemical; conditions: ATP 10 μM; MBP substrate 100 μg/mL; 8 concentration points; read-out: IC50 range of compounds for RIPK1 kinase activity
T1 construct: purchased Promega VA7593
T1 sequence (Q13546 1-671): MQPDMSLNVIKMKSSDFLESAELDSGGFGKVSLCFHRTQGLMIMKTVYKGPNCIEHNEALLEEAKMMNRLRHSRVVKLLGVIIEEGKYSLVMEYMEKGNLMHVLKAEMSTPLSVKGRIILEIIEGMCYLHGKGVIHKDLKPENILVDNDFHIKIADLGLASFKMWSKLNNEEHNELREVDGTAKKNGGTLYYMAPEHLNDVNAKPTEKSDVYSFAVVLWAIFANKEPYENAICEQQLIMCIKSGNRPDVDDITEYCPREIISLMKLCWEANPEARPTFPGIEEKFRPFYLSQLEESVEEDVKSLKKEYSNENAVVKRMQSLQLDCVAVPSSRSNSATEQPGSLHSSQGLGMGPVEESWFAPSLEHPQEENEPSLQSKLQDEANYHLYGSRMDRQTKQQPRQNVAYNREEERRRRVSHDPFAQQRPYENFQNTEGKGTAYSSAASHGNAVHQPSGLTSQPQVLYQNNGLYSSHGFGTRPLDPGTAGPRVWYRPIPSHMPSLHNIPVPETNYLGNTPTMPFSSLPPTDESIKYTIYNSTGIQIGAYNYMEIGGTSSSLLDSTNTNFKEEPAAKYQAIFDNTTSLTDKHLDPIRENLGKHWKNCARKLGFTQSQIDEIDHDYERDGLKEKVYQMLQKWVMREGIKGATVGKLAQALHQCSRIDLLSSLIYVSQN
Summary of the method: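 Human RIPK1 preincubated 15 min at room temperature with compound (8-point 1:5 dilution series, 1% DMSO in kinase buffer D). Reaction then ran 1 h with 10 μM ATP and 100 μg/mL MBP substrate; ADP measured by ADP-Glo luminescence, IC50 from four-parameter nonlinear fit.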

Compound	IC50 (RIPK1 kinase) [nM]	EC50 (U937 cells) [nM]
C[C@@H](CNC(=O)C(=O)N[C@H]1COc2ccc(C#CC3(O)COC3)cc2N(C)C1=O)c1ccccc1 [Example 158, N^1-((S)-7-((3-hydroxyoxetan-3-yl)ethynyl)-5-methyl-4-oxo-2,3,4,5-tetrahydrobenzo[b][1,4]oxazepin-3-yl)-N^2-((R)-2-phenylpropyl)oxalamide]	< 100	< 100
C[C@@H](CNC(=O)C(=O)N[C@H]1COc2ccc(C#CCN3CCOCC3)cc2N(C)C1=O)c1ccccc1 [Example 159, N^1-((S)-5-methyl-7-(3-morpholinoprop-1-yn-1-yl)-4-oxo-2,3,4,5-tetrahydrobenzo[b][1,4]oxazepin-3-yl)-N^2-((R)-2-phenylpropyl)oxalamide]	< 100	< 100
CN1C(=O)C(NC(=O)C(=O)NCCc2cccc(F)c2)CCc2ccc(C#CCCO)cc21 (stereo not shown) [Example 167, N^1-(3-fluorophenethyl)-N^2-(8-(4-hydroxybut-1-yn-1-yl)-1-methyl-2-oxo-2,3,4,5-tetrahydro-1H-benzo[b]azepin-3-yl)oxalamide]	< 100	< 100

Continued, in another order:

IC50 (RIPK1 kinase) [nM]	Compound	EC50 (U937 cells) [nM]
< 100	C[C@@H](CNC(=O)C(=O)N[C@H]1COc2ccc(C#CCCO)cc2N(C)C1=O)c1ccccc1 [Example 155, N^1-((S)-7-(4-hydroxybut-1-yn-1-yl)-5-methyl-4-oxo-2,3,4,5-tetrahydrobenzo[b][1,4]oxazepin-3-yl)-N^2-((R)-2-phenylpropyl)oxalamide]	< 100
< 100	C[C@H](CNC(=O)C(=O)N[C@H]1COc2ccc(C#CCCO)cc2N(C)C1=O)c1ccccc1 [Example 156, N^1-((S)-7-(4-hydroxybut-1-yn-1-yl)-5-methyl-4-oxo-2,3,4,5-tetrahydrobenzo[b][1,4]oxazepin-3-yl)-N^2-((S)-2-phenylpropyl)oxalamide]	< 100
